Test results taken from patent US20010053796A1, “Delta-aminolevulinic acid for prevention and treatment of infection microorganisms and parasite” (priority 2000, published 2001).

Assays:
[1] = system: Vibrio anguillarum; experiment: Prevention effect for artificial infection (abdominal injection of bacteria); format: in vivo, Bastardhalibut; settings: for Mortality during Cultivation: dead of 20 fish
Description: (§1) The water temperature was maintained at 20° C. (±2° C. ) throughout the experiment.
(§2) As the same method of above Experiment 1, fishes of both control group and experiment group were prepared and artificially infected by direct abdominal injection of Edwardsiella tarda 10^5 CFU per 1 fish. Each experimental fish was moved to fish tanks for monitoring and monitored for mortality according to infection for 2 weeks and viability after 2 weeks.
(§3) Bastardhalibut and Sebastes schlegeli were infected by Vibrio anguillarum through abdominal injection with the same method of fish breeding; δ-aminolevulinic acid treatment and artificial infection carried out in Experiment 1 and 2.

[2] = system: Pseudomonas sp.; experiment: as above; format: in vivo, Bastardhalibut; settings: for Mortality during Cultivation: dead of 20 fish
Description: as §1, §2
as §3, with “Pseudomonas sp.” for “Vibrio anguillarum”, “2. Each experimental fish was moved to fish tanks for monitoring and monitored for mortality according to infection for 2 weeks.” for “2.”

[3] = orally, 1.0 ppm in feed, Bastardhalibut
[4] = orally, 10 ppm in feed, Bastardhalibut
[5] = orally, 100 ppm in feed, Bastardhalibut
[6] = to fish tanks, 0.01 ppm, Bastardhalibut
[7] = to fish tanks, 0.1 ppm, Bastardhalibut
[8] = to fish tanks, 1.0 ppm, Bastardhalibut

NCC(=O)CCC(=O)O [δ-aminolevulinic acid]
Viability ([1]; orally, 0.1 ppm in feed): 65% | Mortality during Cultivation ([1]; orally, 0.1 ppm in feed): 7 | Viability ([1]; orally, 1.0 ppm in feed): 55% | Mortality during Cultivation ([1]; orally, 1.0 ppm in feed): 9 | Viability ([1]; orally, 10 ppm in feed): 85% | Mortality during Cultivation ([1]; orally, 10 ppm in feed): 3 | Viability ([1]; orally, 100 ppm in feed): 90% | Mortality during Cultivation ([1]; orally, 100 ppm in feed): 2 | Viability ([1]; to fish tanks, 0.01 ppm): 65% | Mortality during Cultivation ([1]; to fish tanks, 0.01 ppm): 7 | Viability ([1]; to fish tanks, 0.1 ppm): 65% | Mortality during Cultivation ([1]; to fish tanks, 0.1 ppm): 7 | Viability ([1]; to fish tanks, 1.0 ppm): 80% | Mortality during Cultivation ([1]; to fish tanks, 1.0 ppm): 2 | Viability ([1]; to fish tanks, 10 ppm): 85% | Mortality during Cultivation ([1]; to fish tanks, 10 ppm): 3 | Viability ([2]; orally, 0.1 ppm in feed): 60% | Mortality during Cultivation ([2]; orally, 0.1 ppm in feed): 8 | Viability [2, 3]: 55% | Mortality during Cultivation [2, 3]: 9 | Viability [2, 4]: 90% | Mortality during Cultivation [2, 4]: 2 | Viability [2, 5]: 90% | Mortality during Cultivation [2, 5]: 2 | Viability [2, 6]: 60% | Mortality during Cultivation [2, 6]: 8 | Viability [2, 7]: 70% | Mortality during Cultivation [2, 7]: 6 | Viability [2, 8]: 90% | Mortality during Cultivation [2, 8]: 2 | Viability ([2]; to fish tanks, 10 ppm): 90% | Mortality during Cultivation ([2]; to fish tanks, 10 ppm): 2
